According to patent US20260049078A1, “DIFLUORO- AND TRIFLUORO-ACETYL HYDRAZIDES AS SELECTIVE HDAC6 INHIBITORS” (ITALFARMACO S.P.A., priority 2022, published 2026):
Like-named read-outs stand apart in the source and are kept apart here.

What was measured:
SH-SY5Y cells = assay: In vitro α-tubulin acetylation in undifferentiated SH-SY5Y cells; assay type: cell-based; conditions: overnight, @1uM
Experimental: SH-SY5Y cells (ATCC, cod. CRL-2266) are plated in optical optimized 96-well black plates (Perkin Elmer, cod. 6055302) at 5000 cells/well in 100 μl/well of growth medium (DMEM/F12 (1:1)+10 mM hepes+100 units/mL of penicillin+100 μg/mL of streptomycin+10% of inactivated Foetal calf serum (FCS, Hyclone)).
After 24 h of seeding, cells are incubated overnight with the selected molecules at 0.1-1-10 μM. ACY1083 and Tubastatin A, at the same doses, are tested as positive controls of α-Tubulin acetylation, while untreated cells are incubated with 0.01% DMSO and indicated as CTRL DMSO.
At the end of the incubation, cells are fixed adding 100 μL/well of formaldehyde 8% in PBS (final formaldehyde concentration 4% in 200 μL/well) directly in the 100 μL/well of medium, for 30 min at RT. The fixing solution is carefully removed, and wells are washed twice with PBS for 10 min each. Fixed cells are kept in PBS at 4° C. until staining.
The day of the staining experiment, the fixed cells are incubated 60 min with the blocking buffer (PBS with 5% FCS+0.3% Triton™ X-100). While blocking, primary antibodies are prepared by diluting 1:200 the α-Tubulin Alexa Fluor 488 Conjugate (Cell Signaling, cod. 5063) antibody and 1:50 Acetyl-α-Tubulin Alexa Fluor 647 Conjugate (Cell Signaling, cod. 81502) antibody in the Antibody Dilution Buffer (PBS with 1% BSA+0.3% Triton™ X-100). Once the blocking solution is aspirated, the diluted primary antibodies are applied and incubated overnight at 4° C. The next day, cells are rinsed twice with PBS (10 min each), incubated 5 min with 300 nM DAPI in PBS, and then rinsed twice with PBS (10 min each). For each treatment, 3 wells are stained.
Images of the stained cells are acquired by means of the IN Cell Analyzer 2500 HS Instrument, using: far red channel for Acetyl-α-Tubulin staining (exposure 0.02 sec), green channel for α-Tubulin staining (exposure 0.02 sec), and blue channel for DAPI (nuclei) staining. For each well, 10 images are acquired.
Images of stained cells are analysed with the InCarta software (Molecular Devices) for obtaining fluorescence intensity considering whole cells. For each treatment, mean values of Cell intensity—Bckg (Cell), for both staining, are obtained using the InCarta raw data by FOV (Field of View). Results are expressed as fold increase of the ratio of acetylated tubulin and total tubulin towards control (CTRL DMSO).

[1] = system: human B cell precursor leukemia 697; assay: In vitro α-tubulin acetylation in 697 cell line; assay type: cell-based; conditions: read-out: TubAc 697 cells EC50
Experimental: The in vitro α-tubulin acetylation was evaluated on human B cell precursor leukemia 697.
The 697 cells were maintained in RPMI Medium 1640 (Gibco, cat: 21875-034) supplemented with 10 mM HEPES (Gibco, cat: 15630-080), Pen-Strep (Penicillin 100 U/ml, Streptomycin 100 μg/ml, Gibco, cat: 15140-122) and 10% fetal bovine serum (Gibco, cat: 10270-106).
The cells were plated in 12-well plates (Costar, cat: 3512) at the density of 5.5×10^5 cells/ml.
Serial dilutions of test compounds in DMSO were prepared using 20 mM stock solutions to obtain 8 doses 200× concentrated in respect to final doses (2.7-100000 nM). Then the DMSO solutions were diluted 10× in culture medium to obtain 20× concentrated solutions which were used for cells treatment (125 μl of medium solutions were added to 2.375 ml of cells suspension). The final DMSO content was set as 0.5%. The plates were incubated at 37° C., 5% CO2 for 16 hours.
At the end of the incubation period, the cells were harvested and centrifuged for 5 minutes at 200×g and washed with 0.9% NaCl at 4° C. The resulting pellet was treated for 30 minutes at 4° C. with 100 μl Complete Lysis-M buffer containing protease inhibitors (Complete Lysis-M Roche+Complete Tablets, Mini Easypack, cat: 4719956001) and phosphatase inhibitor cocktails (PhosStop Easypack, Roche, cat: 4906837001) and then centrifuged 10 minutes at 18213×g. The protein concentration in each supernatant was determined using BCA Protein Assay Kit (Pierce, cat: 23227). The samples were diluted in PBS 1× to obtain 2 μg/ml concentration and coated in MaxiSorp 96-well plates (Nunc, cat: 442404). The plates were incubated overnight at room temperature.
Plates were washed twice with Wash Buffer (PBS 1×+0.005% tween 20) and saturated for 1 hour at room temperature with 300 μL of 1×PBS containing 10% FBS. After washing twice with Wash Buffer, the plates were incubated for 2 hours at room temperature in the presence of 100 μl/well either anti-acetylated-α-tubulin antibody (Monoclonal Anti-Tubulin, Acetylated antibody produced in mouse, Sigma-Aldrich, cat: T6793) or total anti-α-tubulin antibody (Monoclonal Anti-α-Tubulin produced in mouse, Sigma-Aldrich, cat: T6074) diluted 1:1000 in 1×PBS containing 10% FBS. Following 5 washing cycles with Wash Buffer the secondary antibody conjugated with the enzyme HRP (Goat anti-Mouse IgG, IgM, IgA (H+L), stock concentration 0.5 mg/ml, Thermo Fisher Scientific, cat: A10668), diluted 1:1000 in 1×PBS+10% FBS was added at the volume of 100 μl/well. After two hours of incubation at room temperature the plates were washed 4 times with Wash Buffer, then 100 μl/well of TMB substrate (TMB substrate kit, Thermo Fisher Scientific, cat: 34021) was added for 10 minutes at room temperature in the dark. The reaction was stopped by adding 50 μl of 2M H2SO4. The plates were read in BioTek Synergy H1 multimode microplate reader at a wavelength of 450 nm.
The measured absorbance was corrected by subtracting the mean of blank values (samples without the primary antibody). The absorbance ratios of acetyl to total tubulin assays were calculated and normalized to the reference compound (positive control) 4 parameter logistic curve, where 0% is the fitted bottom and 100% is the fitted top of the curve. The results are expressed as relative EC50.

Row | EC50 ([1]; Homo sapiens, B-cell, 16 h) [nM] | EC50 ([1]; 697 cells, 16 hours, relative EC50) [nM] | SMILES | TubAc SH-SY5Y cells fold increase of the ratio of acetylated tubulin and total tubulin towards control (SH-SY5Y cells) [fold]
1 | 585 | – | FC(F)c1nnc(-c2ccc(Cn3cc(-c4ccc(NC5=NCCN5)cc4)nn3)cc2)o1 [Compound 1-A] | 2
2 | 130 | – | Nc1nc2ccc(-c3cn(Cc4ccc(-c5nnc(C(F)F)o5)cc4F)nn3)cc2s1 [Compound 2-A] | 6.2
3 | 505 | – | FC(F)c1nnc(-c2ccc(Cn3cc(-c4ccccc4)nn3)nc2)o1 [Compound 13-A] | –
4 | 476 | – | Fc1ccccc1-c1cn(Cc2ccc(-c3nnc(C(F)F)o3)cn2)nn1 [Compound 14-A] | 6.3
5 | 1210 | – | FC(F)c1nnc(-c2ccc(Cn3cc(-c4ccccn4)nn3)nc2)o1 [Compound 20-A] | –
6 | 85 | – | Nc1nc2ccc(-c3cn(Cc4ccc(-c5nnc(C(F)F)o5)cc4)nn3)cc2s1 [Compound 32-A] | 6.3
7 | 65 | – | Nc1nc2ccc(-c3cn(Cc4ccc(-c5nnc(C(F)F)o5)cc4Cl)nn3)cc2s1 [Compound 37-A] | 6
8 | 76 | – | Nc1nc2ccc(-c3cn(Cc4ccc(-c5nnc(C(F)F)o5)cn4)nn3)cc2s1 [Compound 38-A] | 10
9 | – | 7.5 | Nc1nc2ccc(C3CN(Cc4ccc(C(=O)NNC(=O)C(F)F)s4)N=N3)cc2s1 (stereo not shown) [Compound 48-A] | 15.7
